Source: the supplement of paper PMC10627819

Legend:
B. subtilis 168 [1] = assay: fitness (endpoint OD595 vs no drug) (fraction); higher = more growth
Outline: (§1)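 At 37 °C, bacteria in TSB, LB Lennox or CY were grown in 384-well plates from a starting OD595 of 0.01. OD595 was measured every 30 min for 14 h, with the first reading used as background. Fitness is the optical density at the switch to stationary phase as a fraction of the robust mean of no-drug control wells, capped at 1.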

S. aureus DSM 20231 [2] = assay: as above
Outline: as §1

S. aureus Newman [3] = assay: as above
Outline: as §1

S. pneumoniae D39V [4] = assay: as above
Outline: as §1

B. subtilis 168 [5] = assay: Bliss interaction score (quartile over a dose matrix) (fitness difference); higher = more antagonism (negative = synergy)
Outline: (§2)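 Growth was read as OD595 when cultures entered stationary phase, and each value was divided by the plate's robust no-drug mean and capped at 1. This normalised ratio is the fitness value, and fitness for each single drug came from the combination data. The Bliss score subtracts the expected fitness, taken as the product, from the observed fitness and is given as quartiles across technical, biological and donor/recipient replicates.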

S. aureus DSM 20231 [6] = assay: as above
Outline: as §2

S. aureus Newman [7] = assay: as above
Outline: as §2

S. pneumoniae D39V [8] = assay: as above
Outline: as §2
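For Bliss interaction score (quartile over a dose matrix) in this document: first quartile when negative (synergy) and third quartile when positive (antagonism).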
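For fitness (endpoint OD595 vs no drug) in this document: OD595 on entry to stationary phase over no-drug wells; at most 1.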

C[C@@H]1O[C@@H]1P(=O)(O)O [Fosfomycin] + COc1c(N2C[C@@H]3CCCN[C@@H]3C2)c(F)cc2c(=O)c(C(=O)O)cn(C3CC3)c12 [Moxifloxacin]
Conditions	fitness
B. subtilis 168 [1], first compound 1.562 µg/mL, partner 0.0312 µg/mL	0.0743
B. subtilis 168 [1], first compound 1.562 µg/mL, partner 0.0625 µg/mL	0.0627
B. subtilis 168 [1], first compound 1.562 µg/mL, partner 0.125 µg/mL	0.0277
B. subtilis 168 [1], first compound 1.562 µg/mL, partner 2 µg/mL	0.0303
B. subtilis 168 [1], first compound 1.562 µg/mL, partner 4 µg/mL	0.0293
B. subtilis 168 [1], first compound 1.562 µg/mL, partner 8 µg/mL	0.0076
B. subtilis 168 [1], first compound 3.124 µg/mL, partner 0.0312 µg/mL	0.0504
B. subtilis 168 [1], first compound 3.124 µg/mL, partner 0.0625 µg/mL	0.0309
B. subtilis 168 [1], first compound 3.124 µg/mL, partner 0.125 µg/mL	0.0339
B. subtilis 168 [1], first compound 3.124 µg/mL, partner 2 µg/mL	0.033
B. subtilis 168 [1], first compound 3.124 µg/mL, partner 4 µg/mL	0.0332
B. subtilis 168 [1], first compound 3.124 µg/mL, partner 8 µg/mL	0.0176
B. subtilis 168 [1], first compound 6.248 µg/mL, partner 0.0312 µg/mL	0.0469
B. subtilis 168 [1], first compound 6.248 µg/mL, partner 0.0625 µg/mL	0.0265
B. subtilis 168 [1], first compound 6.248 µg/mL, partner 0.125 µg/mL	0.0207
B. subtilis 168 [1], first compound 6.248 µg/mL, partner 2 µg/mL	0.016
B. subtilis 168 [1], first compound 6.248 µg/mL, partner 4 µg/mL	0.0083
B. subtilis 168 [1], first compound 6.248 µg/mL, partner 8 µg/mL	0.0062
S. aureus DSM 20231 [2], first compound 0.781 µg/mL, partner 0.0075 µg/mL	0.629
S. aureus DSM 20231 [2], first compound 0.781 µg/mL, partner 0.015 µg/mL	0.609
S. aureus DSM 20231 [2], first compound 0.781 µg/mL, partner 0.03 µg/mL	0.606
S. aureus DSM 20231 [2], first compound 1.562 µg/mL, partner 0.0075 µg/mL	0.592
S. aureus DSM 20231 [2], first compound 1.562 µg/mL, partner 0.015 µg/mL	0.564
S. aureus DSM 20231 [2], first compound 1.562 µg/mL, partner 0.03 µg/mL	0.538
S. aureus DSM 20231 [2], first compound 3.124 µg/mL, partner 0.0075 µg/mL	0.493
S. aureus DSM 20231 [2], first compound 3.124 µg/mL, partner 0.015 µg/mL	0.455
S. aureus DSM 20231 [2], first compound 3.124 µg/mL, partner 0.03 µg/mL	0.299
S. aureus Newman [3], first compound 0.781 µg/mL, partner 0.0075 µg/mL	0.587
S. aureus Newman [3], first compound 0.781 µg/mL, partner 0.015 µg/mL	0.509
S. aureus Newman [3], first compound 0.781 µg/mL, partner 0.03 µg/mL	0.0675
S. aureus Newman [3], first compound 1.562 µg/mL, partner 0.0075 µg/mL	0.413
S. aureus Newman [3], first compound 1.562 µg/mL, partner 0.015 µg/mL	0.358
S. aureus Newman [3], first compound 1.562 µg/mL, partner 0.03 µg/mL	0.0359
S. aureus Newman [3], first compound 3.124 µg/mL, partner 0.0075 µg/mL	0.0916
S. aureus Newman [3], first compound 3.124 µg/mL, partner 0.015 µg/mL	0.0267
S. aureus Newman [3], first compound 3.124 µg/mL, partner 0.03 µg/mL	0.015
S. pneumoniae D39V [4], first compound 1.25 µg/mL, partner 0.005 µg/mL	0.985
S. pneumoniae D39V [4], first compound 1.25 µg/mL, partner 0.01 µg/mL	0.988
S. pneumoniae D39V [4], first compound 1.25 µg/mL, partner 0.02 µg/mL	0.924
S. pneumoniae D39V [4], first compound 1.25 µg/mL, partner 0.0312 µg/mL	0.139
S. pneumoniae D39V [4], first compound 1.25 µg/mL, partner 0.0625 µg/mL	0.0679
S. pneumoniae D39V [4], first compound 1.25 µg/mL, partner 0.125 µg/mL	0.0548
S. pneumoniae D39V [4], first compound 2.5 µg/mL, partner 0.005 µg/mL	0.93
S. pneumoniae D39V [4], first compound 2.5 µg/mL, partner 0.01 µg/mL	0.983
S. pneumoniae D39V [4], first compound 2.5 µg/mL, partner 0.02 µg/mL	0.903
S. pneumoniae D39V [4], first compound 2.5 µg/mL, partner 0.0312 µg/mL	0.12
S. pneumoniae D39V [4], first compound 2.5 µg/mL, partner 0.0625 µg/mL	0.0706
S. pneumoniae D39V [4], first compound 2.5 µg/mL, partner 0.125 µg/mL	0.0382
S. pneumoniae D39V [4], first compound 5 µg/mL, partner 0.005 µg/mL	0.808
S. pneumoniae D39V [4], first compound 5 µg/mL, partner 0.01 µg/mL	0.88
S. pneumoniae D39V [4], first compound 5 µg/mL, partner 0.02 µg/mL	0.855
S. pneumoniae D39V [4], first compound 5 µg/mL, partner 0.0312 µg/mL	0.106
S. pneumoniae D39V [4], first compound 5 µg/mL, partner 0.0625 µg/mL	0.0921
S. pneumoniae D39V [4], first compound 5 µg/mL, partner 0.125 µg/mL	0.0302

fitness, S. aureus DSM 20231 [2], one replicate
Conditions	first compound 0.781 µg/mL	first compound 1.562 µg/mL	first compound 3.124 µg/mL
partner 0.06 µg/mL	0.655	0.585	0.465
partner 0.12 µg/mL	0.46	0.403	0.247

Conditions	Bliss interaction score
B. subtilis 168 [5]	-0.0148
S. aureus DSM 20231 [6]	0.0661
S. aureus Newman [7]	-0.0851
S. pneumoniae D39V [8]	0.0534

CO/N=C(\C(=O)N[C@@H]1C(=O)N2C(C(=O)O)=C(COC(C)=O)CS[C@H]12)c1csc(N)n1 [Cefotaxime] + CCN(CC)CCOC(=O)c1ccc(N)cc1 [Procaine]
fitness, one replicate
Conditions	partner 85.5 µg/mL	partner 171 µg/mL	partner 342 µg/mL
B. subtilis 168 [1], first compound 0.00775 µg/mL	0.834	0.848	0.811
B. subtilis 168 [1], first compound 0.0155 µg/mL	0.701	0.691	0.64
B. subtilis 168 [1], first compound 0.031 µg/mL	0.583	0.572	0.561
S. aureus DSM 20231 [2], first compound 0.039 µg/mL	0.632	0.766	0.762
S. aureus Newman [3], first compound 0.078 µg/mL	0.608	0.612	0.595
S. aureus Newman [3], first compound 0.156 µg/mL	0.454	0.459	0.438
S. aureus Newman [3], first compound 0.312 µg/mL	0.276	0.255	0.264

fitness
Conditions	partner 85.5 µg/mL	partner 171 µg/mL	partner 342 µg/mL
B. subtilis 168 [1], first compound 0.5 µg/mL	0.243	0.225	0.259
B. subtilis 168 [1], first compound 1 µg/mL	0.165	0.125	0.169
B. subtilis 168 [1], first compound 2 µg/mL	0.0861	0.0682	0.118
S. aureus DSM 20231 [2], first compound 0.078 µg/mL	0.721	0.786	0.77
S. aureus DSM 20231 [2], first compound 0.156 µg/mL	0.62	0.703	0.712
S. aureus DSM 20231 [2], first compound 0.312 µg/mL	0.579	0.67	0.664
S. aureus Newman [3], first compound 0.625 µg/mL	0.169	0.111	0.139
S. aureus Newman [3], first compound 1.25 µg/mL	0.0581	0.0383	0.0412
S. aureus Newman [3], first compound 2.5 µg/mL	0.0238	0.0269	0.0485
S. pneumoniae D39V [4], first compound 0.0018 µg/mL	≥ 1	≥ 1	≥ 1
S. pneumoniae D39V [4], first compound 0.0035 µg/mL	0.954	≥ 1	0.945
S. pneumoniae D39V [4], first compound 0.007 µg/mL	0.904	0.92	0.844

Conditions	Bliss interaction score
B. subtilis 168 [5]	0.0852
S. aureus DSM 20231 [6]	-0.0909
S. aureus Newman [7]	-0.0467
S. pneumoniae D39V [8]	-0.0264
